Assay results as given in patent US6723702B2, “Use of relaxin treat diseases related to vasoconstriction” (RAS Medical, Inc., priority 2000, dated 2004).

Experiments:
[1] = tested on: bFGF and VEGF protein staining, peri-infarct area of the heart; assay: Rat LCAL model: immunohistochemical analysis of the peri-infarct area; format: in vivo
Description: Immunohistochemical analysis of the peri-infarct area of the heart was performed as follows. Transverse sections from paraffin embedded hearts were obtained at 3 levels. Sections were stained with H&E to assess neovascularization. Slides of heart sections were deparaffinized in xylene and washed with ethanol. Slides were then rinsed in sterile double distilled water before proceeding with antigen retrieval, as recommended by the antibody vendor (Biogenex). Sections were incubated for 30 minutes in 1.5% normal goat blocking serum (Biogenex, San Ramon, Calif.) and washed three times for 5 minutes each with PBS. Sections were then incubated with a monoclonal antibody against VEGF (VEGF-C1), or a polyclonal antibody against bFGF (FGF-2-147) (both at 5 μg/ml), before washing with PBS. Primary, and anti-goat or anti-rabbit secondary antibodies were purchased from Santa Cruz Biotechnology (Santa Cruz, Calif.). Sections were then incubated in multilink, a biotinylated goat anti-immunoglobulin for use with mouse, rabbit, guinea pig and rat primary antibodies (Biogenex) for 30 minutes at room temperature, followed by washing twice for 10 minutes each with PBS. Sections were labeled with peroxidase conjugated streptavidin for 20 minutes before finally washing twice for 5 minutes with PBS and air-drying). […]

[2] = tested on: wound chambers at shoulder and hip of Sprague Dawley rats; assay: Hunt-Schilling wound chamber assay; format: in vivo, rat
Description: The effect of rhRLX on normal and ischemic wound healing in two rat models of dermal wound healing was evaluated. RhRLX in vehicle, or vehicle alone, was delivered by subcutaneous infusion to Sprague-Dawley rats using an implanted ALZET7 osmotic pump (Alza Corp., Mountain View, Calif.).
In the first model, Hunt-Schilling wound chambers were implanted subcutaneously at either the shoulder or the hip region. The fluid and cells contained within each wound chamber were collected on day 18 for analysis of VEGF protein and mRNA. VEGF protein was detected and measured using ELISA. VEGF-encoding mRNA was detected using Northern blotting and RT-PCR. The granulation tissue within the wound chambers was collected for histological and immunohistochemical evaluation.
Stainless steel mesh cylinders (0.9 cm×3.4 cm) fitted with silicone rubber plugs at both ends were autoclaved prior to implantation. Chambers were implanted into two separate subcutaneous pockets (“Site 1” on the shoulder and “Site 2” on the hip) on the backs of Sprague Dawley rats. At the same time, osmotic pumps were implanted in a subcutaneous pocket at site distal to that of the chambers. At 18 days, chambers were carefully dissected free from the interstitium, and fluid aspirated using an 18-gauge needle through the silicone plugs at the end of the cylinder, and immediately placed on ice. Cells suspended within the fluid were pelleted by centrifugation, and cells and fluid were separated. Total RNA was harvested using RNAzol (Tel-Test, Inc., Friendswood, Tex.), according to vendor instructions. Fluid was immediately frozen, and assayed at a later date for cyokine content.
Primers were purchased from BioSource International (Camarillo, Calif.) and visualized using agarose gel electrophoresis.
Sense and anti-sense primers for use with the real time RT-PCR, ABI Prism 7700 Sequence Detection System were designed using the PrimerExpress version 1.0 software (PE Applied Biosystems, Inc.). Rat and human specific primer/probe sets included those for GAPDH, bFGF, the VEGF 164 aa or 120 aa rat isoforms, and their respective human homologues (VEGF 165 and VEGF 121). ABI PRISM specific primer/probes were purchased from BioSource International Inc. or PE Applied Biosystems.
RT-PCR was performed on 150 ng for the analysis of VEGF and bFGF mRNA expression. Ten nanograms of total RNA was used for GAPDH niRNA expression. PCR products using the ABI Prism 7700 Sequence Detection system (all reactions in a total volume of […]) were generated using primer/probe annealing temperatures of 58° C. and 35 cycles of PCR. Data were analyzed using Sequence Detector v1.6.3 software (Applied Biosystems/PE).
Relaxin was administered systemically to rats using osmotic pumps. In order to assess relaxin's ability to modulate expression of angiogenic cytokines at wound sites, Hunt-Schilling wound chambers were used for fluid and inflammatory cell collection. Wound chambers were implanted subcutaneously at two sites, the shoulder and the hip, distal to the site of pump implantation. Fluid and cells were collected at a point (18 days) during the healing time course when endogenous angiogenic activity and the cellular source, macrophages, were known to be present. Total RNA was harvested from wound cells and analyzed by RT-PCR for VEGF transcripts. When analyzed on an agarose gel, there were two distinct bands comprising the amplified products, corresponding to the 121aa and 164aa, isoforms of VEGF.
To assess the effect of rhRlx treatment on granulation tissue formation in normal and ischemic wounds, Hunt-Schilling wound chambers were implanted subcutaneously in either the shoulder or the more hypoxic hip region of female Sprague Dawley rats (Charles River Laboratories, Mass.). The wound chambers, fine stainless steel mesh cylinders sealed with medical grade silicone, provide a defined dead space for granulation tissue formation. […]

[3] = tested on: Rat aortic adventitial fibroblasts; assay: Collagen and fibronectin expression by adventitial fibroblasts; format: cell-based; settings: rhRlx 10 ng/ml
Description: Aortic adventitial fibroblasts from normal adult Sprague/Dawley rats were explanted by carefully dissecting the adventitia away from the media and culturing 1 mm^3 pieces in Dulbecco's modified Eagles Medium (DMEM), plus 10% bovine fetal calf serum. When cultures were confluent, fibroblasts were dispersed with trypsin and passaged once prior to use in experiments. Fibroblasts were seeded at 10^5 cells/cm^2 in DMEM+10% FBS in 48-well plates for experiments and assayed for collagen and fibronectin expression, as previously described (Unemori et al. (1996) J. Clin. Invest. 98:2739-2745). […] Half of the cultures were also treated simultaneously with 10 ng/ml of rhRlx. Proteins were biosynthetically labeled with ^3H-proline (25 μCi/ml) (Amersham Corp., Arlington Heights, Ill.), in the presence of ascorbate (50 μg/ml) and β-aminopropionitrile (80 μg/ml), and conditioned media collected 24 hours later. Media were electrophoresed on SDS-PAGE, and the density of collagen and fibronectin bands was determined by densitometric scanning using a digital imaging system (Alpha Innotech Corp, San Leandro, Calif.).

[4] = wound chamber cells, both shoulder and hip region, day 18
[5] = wound chambers in the hip region

rhRLX: recombinant human relaxin, identical in amino acid sequence to the product of the human H2 gene; A chain of 24, B chain of 29 amino acids
peri-infarct bFGF staining ([1]; 7 and 21 days, vs vehicle-treated hearts, blinded scoring): more intense
intensity of VEGF staining ([1]; relaxin vs vehicle-treated hearts): No differences in intensity
expression of VEGF 164 mRNA ([2]; anteriorly placed (shoulder) wound chamber, real-time RT-PCR): upregulated
bFGF transcripts in wound cells ([2]; both shoulder and hip chambers): significant upregulation
VEGF 120 mRNA ([2]; both sites, real-time RT-PCR): trends toward increases
expression of VEGF 164 mRNA ([2]; chamber placed on the hip, real-time RT-PCR): trend toward an increase
bFGF, and VEGF expression in wounds cells ([2]; hip region (Example 7)): increase
new blood vessel formation ([2]; hip region (Example 7)): increase
Expression of both VEGF isoforms, RT-PCR on agarose gel ([2]; wound cells, 18 days): appeared to be enhanced
VEGF mRNA increase compared to vehicle-treated rats [2, 4]: 31%
bFGF mRNA increase compared to vehicle-treated rats [2, 4]: 59%
weight of granulation tissue ([2]; wound chambers at the hip region, day 18 (Example 7)): significant increase
amount of extracellular matrix deposition [2, 5]: increased
amount of granulation tissue [2, 5]: 255 mg
number of capillaries [2, 5]: increased
tissue weight ([2]; wound chambers in the shoulder region): 283 mg
decrease of TGF-β-induced fibronectin over-expression [3]: 28±6%
inhibition of TGF-β-induced collagen over-expression [3]: 21±5%
